Species on record: Rattus norvegicus
Assay: Open TG-GATES - Regimen: Daily Repeat
Format: toxicity, organism-based, Sprague-Dawley
Design: regimen Daily Repeat, gender Male, age 6 weeks
Details: in vivo, po, 150 mg/kg, route gavage, dose level Middle; for APTT / Bas / Eos / Fbg / Hb / Ht / Lym / MCH / MCHC / MCV / Mono / Neu / PT / Plat / RBC / Ret / WBC: tissue Blood; for KIDNEY_L / KIDNEY_R / KIDNEY_TOTAL: tissue Kidney; for LIVER: tissue Liver; for A/G / ALP / ALT / AST / BUN / CRE / Ca / Cl / DBIL / GLC / IP / K / LDH / Na / PL / RALB / TBIL / TC / TG / TP / gamma-GTP: tissue Plasma

`CN1C(=O)CCS(=O)(=O)C1c1ccc(Cl)cc1` (configuration not stated) [CHLORMEZANONE] gave a TERMINAL_BW (72 h, time 3 day) of 226.1 g, an APTT (72 h, time 3 day) of 15.7 s and a Bas (72 h, time 3 day) of 0%. It also gave an Eos (72 h, time 3 day) of 1%, a Fbg (72 h, time 3 day) of 296.4 mg/dL and a Hb (72 h, time 3 day) of 13.5 g/dL. It also gave a Ht (72 h, time 3 day) of 39.4%, a Lym (72 h, time 3 day) of 76% and an MCH (72 h, time 3 day) of 21.8 pg. The MCHC (72 h, time 3 day) was 34.1%, the MCV (72 h, time 3 day) was 63.8 fL and the Mono (72 h, time 3 day) was 2.8%. For the same compound, the Neu (72 h, time 3 day) was 19.4%, the PT (72 h, time 3 day) was 11.4 s and the Plat (72 h, time 3 day) was 123.4 x10_4/uL. For the same compound, the RBC (72 h, time 3 day) was 618 x10_4/ul, the Ret (72 h, time 3 day) was 6.2% and the WBC (72 h, time 3 day) was 86.7 x10_2/uL. For the same compound, the KIDNEY_L (72 h, time 3 day) was 0.9 g, the KIDNEY_R (72 h, time 3 day) was 0.9 g and the KIDNEY_TOTAL (72 h, time 3 day) was 1.8 g. It also gave an LIVER (72 h, time 3 day) of 13 g, an A/G (72 h, time 3 day) of 0.9 and an ALP (72 h, time 3 day) of 1825 IU/L. For the same compound, the ALT (72 h, time 3 day) was 52.2 IU/L, the AST (72 h, time 3 day) was 69 IU/L and the BUN (72 h, time 3 day) was 15.4 mg/dL. The CRE (72 h, time 3 day) was 0.2 mg/dL, the Ca (72 h, time 3 day) was 11.2 mg/dL and the Cl (72 h, time 3 day) was 106.6 meq/L. For the same compound, the DBIL (72 h, time 3 day) was 0.014 mg/dL, the GLC (72 h, time 3 day) was 179.6 mg/dL and the IP (72 h, time 3 day) was 7.1 mg/dL. The K (72 h, time 3 day) was 4.5 meq/L, the LDH (72 h, time 3 day) was 74.6 IU/L and the Na (72 h, time 3 day) was 143 meq/L. For the same compound, the PL (72 h, time 3 day) was 144 mg/dL, the RALB (72 h, time 3 day) was 2.8 g/dL and the TBIL (72 h, time 3 day) was 0.026 mg/dL. For the same compound, the TC (72 h, time 3 day) was 80.4 mg/dL, the TG (72 h, time 3 day) was 94.6 mg/dL and the TP (72 h, time 3 day) was 5.9 g/dL. The gamma-GTP (72 h, time 3 day) was 1.4 IU/L, the TERMINAL_BW ([…], time 7 day) was 265.5 g and the TERMINAL_BW ([…], time 14 day) was 313.6 g. It also gave a TERMINAL_BW ([…], time 28 day) of 389.8 g, an APTT ([…], time 7 day) of 17 s and a Bas ([…], time 7 day) of 0%. For the same compound, the Eos ([…], time 7 day) was 0.8%, the Fbg ([…], time 7 day) was 302.2 mg/dL and the Hb ([…], time 7 day) was 13.2 g/dL. It also gave a Ht ([…], time 7 day) of 39.4%, a Lym ([…], time 7 day) of 78.2% and an MCH ([…], time 7 day) of 21.3 pg. For the same compound, the MCHC ([…], time 7 day) was 33.5%, the MCV ([…], time 7 day) was 63.4 fL and the Mono ([…], time 7 day) was 3%. It also gave a Neu ([…], time 7 day) of 18%, a PT ([…], time 7 day) of 11.5 s and a Plat ([…], time 7 day) of 129.2 x10_4/uL. The RBC ([…], time 7 day) was 621 x10_4/ul, the Ret ([…], time 7 day) was 6.4% and the WBC ([…], time 7 day) was 79.7 x10_2/uL. It also gave an APTT ([…], time 14 day) of 19.7 s, a Bas ([…], time 14 day) of 0% and an Eos ([…], time 14 day) of 0.8%. It also gave a Fbg ([…], time 14 day) of 306.2 mg/dL, a Hb ([…], time 14 day) of 14 g/dL and a Ht ([…], time 14 day) of 40.1%. For the same compound, the Lym ([…], time 14 day) was 80%, the MCH ([…], time 14 day) was 21 pg and the MCHC ([…], time 14 day) was 34.8%. For the same compound, the MCV ([…], time 14 day) was 60.3 fL, the Mono ([…], time 14 day) was 2% and the Neu ([…], time 14 day) was 16.2%. It also gave a PT ([…], time 14 day) of 11.6 s, a Plat ([…], time 14 day) of 118.9 x10_4/uL and an RBC ([…], time 14 day) of 665.2 x10_4/ul. For the same compound, the Ret ([…], time 14 day) was 4.2%, the WBC ([…], time 14 day) was 102.9 x10_2/uL and the APTT ([…], time 28 day) was 17.9 s. It also gave a Bas ([…], time 28 day) of 0%, an Eos ([…], time 28 day) of 1% and a Fbg ([…], time 28 day) of 281 mg/dL. The Hb ([…], time 28 day) was 14.5 g/dL, the Ht ([…], time 28 day) was 41.2% and the Lym ([…], time 28 day) was 78.8%. For the same compound, the MCH ([…], time 28 day) was 19.7 pg, the MCHC ([…], time 28 day) was 35.3% and the MCV ([…], time 28 day) was 55.7 fL. The Mono ([…], time 28 day) was 2.2%, the Neu ([…], time 28 day) was 16.8% and the PT ([…], time 28 day) was 11.9 s. It also gave a Plat ([…], time 28 day) of 105.4 x10_4/uL, an RBC ([…], time 28 day) of 741.2 x10_4/ul and a Ret ([…], time 28 day) of 2.8%. It also gave a WBC ([…], time 28 day) of 97.2 x10_2/uL, a KIDNEY_L ([…], time 7 day) of 1 g and a KIDNEY_R ([…], time 7 day) of 1 g. The KIDNEY_TOTAL ([…], time 7 day) was 2 g, the KIDNEY_L ([…], time 14 day) was 1.2 g and the KIDNEY_R ([…], time 14 day) was 1.2 g. It also gave a KIDNEY_TOTAL ([…], time 14 day) of 2.4 g, a KIDNEY_L ([…], time 28 day) of 1.3 g and a KIDNEY_R ([…], time 28 day) of 1.3 g. The KIDNEY_TOTAL ([…], time 28 day) was 2.5 g, the LIVER ([…], time 7 day) was 14.4 g and the LIVER ([…], time 14 day) was 15.9 g. The LIVER ([…], time 28 day) was 18.1 g, the A/G ([…], time 7 day) was 0.9 and the ALP ([…], time 7 day) was 1471.4 IU/L. It also gave an ALT ([…], time 7 day) of 46.2 IU/L, an AST ([…], time 7 day) of 63.6 IU/L and a BUN ([…], time 7 day) of 16.6 mg/dL. For the same compound, the CRE ([…], time 7 day) was 0.2 mg/dL, the Ca ([…], time 7 day) was 11.5 mg/dL and the Cl ([…], time 7 day) was 107.8 meq/L. The DBIL ([…], time 7 day) was 0.014 mg/dL, the GLC ([…], time 7 day) was 193.2 mg/dL and the IP ([…], time 7 day) was 6.9 mg/dL. For the same compound, the K ([…], time 7 day) was 4.2 meq/L, the LDH ([…], time 7 day) was 71.2 IU/L and the Na ([…], time 7 day) was 143.8 meq/L. The PL ([…], time 7 day) was 142.2 mg/dL, the RALB ([…], time 7 day) was 2.8 g/dL and the TBIL ([…], time 7 day) was 0.02 mg/dL. It also gave a TC ([…], time 7 day) of 80.6 mg/dL, a TG ([…], time 7 day) of 87 mg/dL and a TP ([…], time 7 day) of 6 g/dL. The gamma-GTP ([…], time 7 day) was 1.2 IU/L, the A/G ([…], time 14 day) was 0.8 and the ALP ([…], time 14 day) was 1404.2 IU/L. For the same compound, the ALT ([…], time 14 day) was 52.2 IU/L, the AST ([…], time 14 day) was 63.4 IU/L and the BUN ([…], time 14 day) was 17.2 mg/dL. The CRE ([…], time 14 day) was 0.2 mg/dL, the Ca ([…], time 14 day) was 11.3 mg/dL and the Cl ([…], time 14 day) was 106.8 meq/L. It also gave a DBIL ([…], time 14 day) of 0.006 mg/dL, a GLC ([…], time 14 day) of 188.2 mg/dL and an IP ([…], time 14 day) of 7 mg/dL. It also gave a K ([…], time 14 day) of 4.3 meq/L, an LDH ([…], time 14 day) of 76.6 IU/L and a Na ([…], time 14 day) of 142.8 meq/L. The PL ([…], time 14 day) was 136.8 mg/dL, the RALB ([…], time 14 day) was 2.9 g/dL and the TBIL ([…], time 14 day) was 0.052 mg/dL. For the same compound, the TC ([…], time 14 day) was 74.4 mg/dL, the TG ([…], time 14 day) was 74.4 mg/dL and the TP ([…], time 14 day) was 6.3 g/dL. It also gave a gamma-GTP ([…], time 14 day) of 1 IU/L, an A/G ([…], time 28 day) of 0.9 and an ALP ([…], time 28 day) of 1029.8 IU/L. For the same compound, the ALT ([…], time 28 day) was 46 IU/L, the AST ([…], time 28 day) was 58 IU/L and the BUN ([…], time 28 day) was 16.8 mg/dL. The CRE ([…], time 28 day) was 0.3 mg/dL, the Ca ([…], time 28 day) was 10.7 mg/dL and the Cl ([…], time 28 day) was 105.8 meq/L. For the same compound, the DBIL ([…], time 28 day) was 0.01 mg/dL, the GLC ([…], time 28 day) was 190.4 mg/dL and the IP ([…], time 28 day) was 5.8 mg/dL. It also gave a K ([…], time 28 day) of 4.1 meq/L, an LDH ([…], time 28 day) of 63.4 IU/L and a Na ([…], time 28 day) of 142.8 meq/L. It also gave a PL ([…], time 28 day) of 153.8 mg/dL, an RALB ([…], time 28 day) of 2.9 g/dL and a TBIL ([…], time 28 day) of 0.058 mg/dL. For the same compound, the TC ([…], time 28 day) was 83.4 mg/dL, the TG ([…], time 28 day) was 93.6 mg/dL and the TP ([…], time 28 day) was 6.4 g/dL. It also gave a gamma-GTP ([…], time 28 day) of 1 IU/L.
